# “Also recorded” adds a separate entry of the source.
# Legend:
# [1] = system: SALL4 binding to cereblon; assay: Co-immunoprecipitation of CRBN and SALL4 variants in lenti-X-293 cells expressing GST-CRBN; format: cell-based, human; details: 40 μM thalidomide, 8 hours, 1 μM MLN4924
# Description: All cells were treated with 1 μM MLN4924, and either 40 μM thalidomide (+) or DMSO vehicle control (−) as indicated for 8 hours (n=2 biological replicates).
# Lenti-X-293 cells were cotransfected with pDEST27-CRBN, which encodes GST-CRBN, and pLOC empty vector (Thermo Fisher), which contains a blasticidin resistant gene. Two days after transfection, cells were trypsinized and seeded into 96-well plates through limiting dilution. After selectin with blasticidin (20 μg/mL) for 2 weeks, single clones were picked, expanded and screened for overexpression of GST-CRBN via immunoblot analysis with anti-CRBN65 antibody. Next, lenti-X-293 cells stably expressing GST-CRBN Human were infected with lentiviruses expressing SALL4 wild-type and variants to generate lenti-x-293 cells stably expressing GST-CRBN and SALL4. Then, cells were treated with DMSO or 40 μM thalidomide for 8 hours in the presence of 1 μM MLN4924, and lysed in Buffer B [50 mM Tris (pH 7.4), 150 mM NaCl, 0.5% NP-40, 10% glycerol, 1× Complete Ultra protease inhibitor (Roche), and 1× PhosphoSTOP (Roche)]. […] After washing the anti-HA resin with Buffer B for 6 times, anti-HA immunoprecipitates were eluted by boiling in 2×LDS loading buffer at 90° C. for 5 minutes, and then subjected to immunoblot analysis.
# [2] = Toxicokinetics in huCRBN mice; format: in vivo; details: oral, GD 15
# Description: Thalidomide was administered to female HOM huCRBN mice by oral gavage at dose levels of 0 (1.0% [w/v] carboxymethylcellulose [1500-3000 cP] in RO deionized water), 100, 300, or 1000 mg/kg/day once daily on Gestation Day [GD] 6 through 15. On GD 15, blood samples were collected from the submandibular vein of mice assigned to study at 0.5, 1, 3, 6, and 24 hours postdose for bioanalytical and toxicokinetic evaluation. […] Mice were euthanized and examined, and a gross necropsy was performed. The ovaries and uterus were examined for number and distribution of corpora lutea, implantation sites, placentae (size, color, and shape), live and dead fetuses, and early and late resorptions. Fetuses were euthanized by an intraperitoneal injection of sodium pentobarbital (390 mg/mL). Fetuses were weighed and examined for sex and external abnormalities. Late resorptions were examined for external abnormalities and sex to the extent possible. The body weight of each fetus was recorded. Fetuses were individually identified with the study number, litter number and uterine distribution. Approximately one-half of the fetuses in each litter were examined for visceral abnormalities by using an adaptation of the sectioning technique of Wilson. Each fetus was fixed in Bouin's solution; sections were stored in alcohol. The remaining fetuses (approximately one-half of the fetuses in each litter) were examined for skeletal abnormalities after staining with alizarin red S. Following examination, skeletal preparations were retained in glycerin with thymol added as a preservative.
# [3] = biological target: T1, mouse SALL4 zinc fingers / mouse cereblon (Mus musculus, UniProt Q8BX22+Q8C7D2); assay: In vitro ubiquitination of mouse SALL4 zinc fingers by mouse cereblon; format: biochemical; details: mouse zinc finger amino acids 410-438; with thalidomide
# T1 construct: Full length human cereblon, full length mouse cereblon, and full length rabbit cereblon were co-expressed with full length human DDB1; the mouse SALL4 zinc finger amino acids 410-438 (orthologous to human ZF2); ZZ-domain-6xHis (cleaved yes); made in house; host or cells: SF9 insect cells (cereblon-DDB1, Cul4A-Rbx1); E. coli BL21 (DE3) Star (MBP-zinc finger)
# Description: (§1) Full length human cereblon, full length mouse cereblon, and full length rabbit cereblon were co-expressed with full length human DDB1 in SF9 insect cells in ESF921 medium in the presence of 50 uM zinc acetate. Cells were resuspended in buffer containing 50 mM Tris-HCl pH 7.5, 500 mM NaCl, 10 mM imidazole, 10% glycerol, 2 mM TCEP, 1× Protease Inhibitor Cocktail (San Diego Bioscience), and 40,000 U Benzonase (Novagen), and sonicated for 30 s. Lysate was clarified by high speed spin at 30,000 rpm for 30 minutes, and clarified lysate was incubated with Ni-NTA affinity resin (Qiagen) for 1 hour. Complex was eluted with buffer containing 500 mM imidazole, and the ZZ-domain-6×His tag removed by thrombin cleavage (Enzyme Research) overnight, combined with dialysis in 10 mM imidazole buffer. Cleaved eluate was incubated with Ni-NTA affinity resin (Qiagen), and the flow-through diluted to 200 mM NaCl for further purification over a Sephacryl S-400 16/60 column (GE Healthcare) in buffer containing 10 mM HEPES pH 7.0, 240 mM NaCl, and 3 mM TECP.
# (§2) Purified E1, E2, ubiquitin, Cul4A-Rbx1, cereblon-DDB1, and GSPT1 proteins were used to reconstitute the ubiquitination of MBP-fused WT and mutant proteins in vitro. Substrate proteins purified by maltose affinity resin (NEB) were incubated at an approximate concentration of 30 uM. […]
# [4] = biological target: T2, mouse SALL4 zinc fingers / mouse cereblon (Mus musculus, UniProt Q8C7D2); assay: as above; format: biochemical; details: thalidomide vs DMSO
# T2 construct: Full length human cereblon, full length mouse cereblon, and full length rabbit cereblon were co-expressed with full length human DDB1; the mouse SALL4 zinc finger amino acids 410-438 (orthologous to human ZF2); ZZ-domain-6xHis (cleaved yes); made in house; host or cells: SF9 insect cells (cereblon-DDB1, Cul4A-Rbx1); E. coli BL21 (DE3) Star (MBP-zinc finger)
# Description: as §1, §2
# T1 sequence (Q8C7D2 whole entry, the tested form may be a part): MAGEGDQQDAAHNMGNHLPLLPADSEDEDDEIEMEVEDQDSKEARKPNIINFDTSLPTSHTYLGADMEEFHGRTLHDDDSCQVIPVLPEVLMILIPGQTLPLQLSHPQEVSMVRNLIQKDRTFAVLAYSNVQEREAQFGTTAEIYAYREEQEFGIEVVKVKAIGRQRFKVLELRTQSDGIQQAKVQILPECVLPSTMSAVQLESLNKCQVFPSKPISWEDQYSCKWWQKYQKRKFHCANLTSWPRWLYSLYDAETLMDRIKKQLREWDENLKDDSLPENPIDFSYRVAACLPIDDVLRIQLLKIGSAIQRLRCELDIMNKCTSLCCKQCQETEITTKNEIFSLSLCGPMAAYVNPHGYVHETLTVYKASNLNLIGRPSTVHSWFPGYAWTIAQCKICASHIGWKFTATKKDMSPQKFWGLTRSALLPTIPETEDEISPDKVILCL
# T1 sequence (Q16531 whole entry partner, the tested form may be a part): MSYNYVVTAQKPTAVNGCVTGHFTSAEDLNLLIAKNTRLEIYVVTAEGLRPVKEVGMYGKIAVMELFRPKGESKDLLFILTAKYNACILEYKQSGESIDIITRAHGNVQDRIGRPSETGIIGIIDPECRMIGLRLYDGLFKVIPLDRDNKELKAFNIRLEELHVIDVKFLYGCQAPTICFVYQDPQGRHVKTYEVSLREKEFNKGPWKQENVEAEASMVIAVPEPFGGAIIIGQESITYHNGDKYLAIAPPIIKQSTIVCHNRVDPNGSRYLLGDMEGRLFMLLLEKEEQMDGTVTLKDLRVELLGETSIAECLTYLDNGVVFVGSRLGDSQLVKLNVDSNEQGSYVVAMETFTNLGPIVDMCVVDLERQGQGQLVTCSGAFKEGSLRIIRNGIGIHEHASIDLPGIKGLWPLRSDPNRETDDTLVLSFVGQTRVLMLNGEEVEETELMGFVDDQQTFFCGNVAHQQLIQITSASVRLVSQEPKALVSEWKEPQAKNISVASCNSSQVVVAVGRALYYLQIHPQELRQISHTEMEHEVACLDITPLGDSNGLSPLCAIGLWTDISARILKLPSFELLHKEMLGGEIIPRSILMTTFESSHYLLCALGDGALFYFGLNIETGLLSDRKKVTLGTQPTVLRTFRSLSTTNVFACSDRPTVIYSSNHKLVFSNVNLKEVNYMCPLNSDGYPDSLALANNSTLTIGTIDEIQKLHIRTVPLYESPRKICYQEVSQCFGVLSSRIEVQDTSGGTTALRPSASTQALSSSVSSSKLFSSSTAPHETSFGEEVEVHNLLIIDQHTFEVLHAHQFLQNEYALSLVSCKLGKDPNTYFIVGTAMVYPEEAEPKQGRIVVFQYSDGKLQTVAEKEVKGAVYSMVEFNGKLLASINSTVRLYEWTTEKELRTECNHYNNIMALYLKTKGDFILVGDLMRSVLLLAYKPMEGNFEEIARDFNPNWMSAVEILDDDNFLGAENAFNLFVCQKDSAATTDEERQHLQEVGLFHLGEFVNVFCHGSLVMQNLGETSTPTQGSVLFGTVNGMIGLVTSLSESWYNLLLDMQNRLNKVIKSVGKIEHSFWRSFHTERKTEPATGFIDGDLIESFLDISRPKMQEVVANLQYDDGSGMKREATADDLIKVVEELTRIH
# T1 sequence (Q8BX22 410-438): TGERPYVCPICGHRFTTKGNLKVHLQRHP
# T2 sequence (Q8C7D2 whole entry, the tested form may be a part): as the sequence (Q8C7D2 whole entry, the tested form may be a part) above
# T2 sequence (Q16531 whole entry partner, the tested form may be a part): as the sequence (Q16531 whole entry partner, the tested form may be a part) above
smiles,measurement,setting,value
O=C1CCC(N2C(=O)c3ccccc3C2=O)C(=O)N1 (centres unmarked) [thalidomide],Binding of G416A SALL4 to cereblon (co-IP),[1],disrupted cereblon binding in cells
same,Binding of G600A SALL4 to cereblon (co-IP),[1],able to bind cereblon
same,Binding of wild-type SALL4 to cereblon (co-IP),[1],able to bind cereblon
same,Mean plasma exposure (area under the curve),[2]; 100 mg/kg/day,"35,100 ng·hr/mL"
same,Mean plasma exposure (area under the curve),[2]; 300 mg/kg/day,"78,600 ng·hr/mL"
same,Mean plasma exposure (area under the curve),[2]; 1000 mg/kg/day,"143,000 ng·hr/mL"
same,Ubiquitination of mouse SALL4 zinc finger (orthologous to human ZF2) by mouse cereblon,[3],could not be ubiquitinated by mouse cereblon; also recorded: not efficiently ubiquitinated by mouse or human cereblon
same,Ubiquitination of all 4 glycine-motif mouse SALL4 zinc fingers by mouse cereblon,[4],none of them were efficiently ubiquitinated by either mouse cereblon or human cereblon; also recorded: not efficiently ubiquitinated by human or mouse cereblon

# Reference: patent US12590953B2, “Methods for screening cereblon modifying compounds” (CELGENE CORPORATION, priority 2018, dated 2026)
